# Experimental data reported in ChEMBL document CHEMBL1201862, “PubChem BioAssay data set” (2004).
# Where a name gives a salt, the structure may show the parent alone.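 Cultured in 96-well plates, cells were exposed to test compound for 48 hours across five concentrations. GI50 marks 50% less growth.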 Active and inactive are the calls of the source. Cut-off read from the data, not from the text of the source: active = GI50 up to about 1.1 µM and inactive = higher.
# Experiments:
# Assay in all cases: NCI tumour cell line growth inhibition, 48 h
# A498 = test system: A498
# CAKI-1 = test system: CAKI-1
# CCRF-CEM = test system: CCRF-CEM
# COLO 205 = test system: COLO 205
# HCC 2998 = test system: HCC 2998
# HL-60 = test system: HL-60
# KM12 = test system: KM12
# MOLT-4 = test system: MOLT-4
# Malme-3M = test system: Malme-3M
# OVCAR-3 = test system: OVCAR-3
# OVCAR-4 = test system: OVCAR-4
# OVCAR-5 = test system: OVCAR-5
# OVCAR-8 = test system: OVCAR-8
# RPMI-8226 = test system: RPMI-8226
# SF-268 = test system: SF-268
# SK-MEL-28 = test system: SK-MEL-28
# TK-10 = test system: TK-10
# HCT-116 = test system: HCT-116
# MDA-MB-435 = test system: MDA-MB-435
# PC-3 = test system: PC-3
Compound,GI50 (A498),GI50 (CAKI-1),GI50 (CCRF-CEM),GI50 (COLO 205),GI50 (HCC 2998),GI50 (HL-60),GI50 (KM12),GI50 (MOLT-4),GI50 (Malme-3M),GI50 (OVCAR-3),GI50 (OVCAR-4),GI50 (OVCAR-5),GI50 (OVCAR-8),GI50 (RPMI-8226),GI50 (SF-268),GI50 (SK-MEL-28),GI50 (TK-10),GI50 (HCT-116),GI50 (MDA-MB-435),GI50 (PC-3)
O=C1OC(CCCl)(c2ccccc2)CC1CN1CCOCC1 (stereo not drawn),> 100 µM (inactive),8.49 µM (inactive),11.4 µM (inactive),18.9 µM (inactive),26.3 µM (inactive),9.77 µM (inactive),20.2 µM (inactive),18 µM (inactive),18.4 µM (inactive),17.8 µM (inactive),48.4 µM (inactive),> 100 µM (inactive),17.7 µM (inactive),3.84 µM (inactive),41.4 µM (inactive),19.7 µM (inactive),16.4 µM (inactive),–,–,–
COC(=O)N/N=C(/CCN1CCCC1)CC(c1ccccc1)c1c(O)c2ccccc2oc1=O (stereo not drawn),> 100 µM (inactive),> 100 µM (inactive),> 100 µM (inactive),> 100 µM (inactive),> 100 µM (inactive),> 100 µM (inactive),> 100 µM (inactive),> 100 µM (inactive),> 100 µM (inactive),> 100 µM (inactive),> 100 µM (inactive),> 100 µM (inactive),> 100 µM (inactive),> 100 µM (inactive),> 100 µM (inactive),> 100 µM (inactive),> 100 µM (inactive),> 100 µM (inactive),–,–
COC(=O)CCCC(=O)NC1=C(Nc2ccccc2)C(=O)c2ccccc2C1=O,16.9 µM (inactive),20.1 µM (inactive),22.8 µM (inactive),16.3 µM (inactive),14.7 µM (inactive),20.5 µM (inactive),5.24 µM (inactive),16.6 µM (inactive),3.56 µM (inactive),12.6 µM (inactive),19.3 µM (inactive),16.8 µM (inactive),31.9 µM (inactive),17.6 µM (inactive),30.7 µM (inactive),16.7 µM (inactive),26.8 µM (inactive),16.6 µM (inactive),5.51 µM (inactive),–
[O-][S+]1Cc2ccccc2CSS1 (stereo not drawn),56.5 µM (inactive),16.3 µM (inactive),–,14.2 µM (inactive),26.1 µM (inactive),3.44 µM (inactive),16.8 µM (inactive),12.6 µM (inactive),13 µM (inactive),15.1 µM (inactive),16.6 µM (inactive),16.3 µM (inactive),14.5 µM (inactive),16.3 µM (inactive),23.9 µM (inactive),13.8 µM (inactive),16.8 µM (inactive),15 µM (inactive),–,–
COC(=O)C1=CCS(=O)(=O)C1,> 100 µM (inactive),> 100 µM (inactive),> 10 µM (inactive),> 100 µM (inactive),> 100 µM (inactive),> 100 µM (inactive),> 100 µM (inactive),> 100 µM (inactive),> 100 µM (inactive),> 100 µM (inactive),> 100 µM (inactive),> 100 µM (inactive),> 100 µM (inactive),> 100 µM (inactive),> 100 µM (inactive),> 100 µM (inactive),> 100 µM (inactive),> 100 µM (inactive),–,–
CC(C)/C=C1\CCC(CN2CCCC2)C1=O (stereo not drawn),> 42.3 µM (inactive),5.16 µM (inactive),3.48 µM (inactive),7.05 µM (inactive),19.5 µM (inactive),3.51 µM (inactive),10 µM (inactive),3.63 µM (inactive),6.28 µM (inactive),17.4 µM (inactive),17.6 µM (inactive),20 µM (inactive),10.4 µM (inactive),0.472 µM (active),22.3 µM (inactive),17.5 µM (inactive),10.7 µM (inactive),8.97 µM (inactive),–,–
N#CC(/C(=N/NC(N)=S)C(=O)Nc1cccc(Cl)c1)c1ccccc1 (stereo not drawn),> 100 µM (inactive),> 100 µM (inactive),> 100 µM (inactive),> 100 µM (inactive),> 100 µM (inactive),> 100 µM (inactive),> 100 µM (inactive),> 100 µM (inactive),> 100 µM (inactive),> 100 µM (inactive),> 100 µM (inactive),> 100 µM (inactive),> 100 µM (inactive),> 100 µM (inactive),> 100 µM (inactive),> 100 µM (inactive),> 100 µM (inactive),> 100 µM (inactive),–,–
O=C1C2C(C(=O)N1Cc1ccccc1)N(Cc1ccccc1)C(=O)N2Cc1ccccc1 (stereo not drawn),> 100 µM (inactive),> 100 µM (inactive),> 100 µM (inactive),> 100 µM (inactive),> 100 µM (inactive),> 100 µM (inactive),> 100 µM (inactive),> 100 µM (inactive),> 100 µM (inactive),> 100 µM (inactive),> 100 µM (inactive),> 100 µM (inactive),> 100 µM (inactive),> 100 µM (inactive),> 100 µM (inactive),> 100 µM (inactive),> 100 µM (inactive),> 100 µM (inactive),–,–
COc1cccc(/C=N/C23CC4CC(CC(C4)C2)C3)c1,> 100 µM (inactive),> 100 µM (inactive),> 100 µM (inactive),> 100 µM (inactive),> 100 µM (inactive),> 100 µM (inactive),> 100 µM (inactive),> 100 µM (inactive),> 100 µM (inactive),> 100 µM (inactive),> 100 µM (inactive),> 100 µM (inactive),> 100 µM (inactive),> 100 µM (inactive),> 100 µM (inactive),> 100 µM (inactive),> 100 µM (inactive),> 100 µM (inactive),–,–
CCN(CC)CC(=O)/C=C/c1ccc(C)cc1,56 µM (inactive),17.8 µM (inactive),2.93 µM (inactive),18.8 µM (inactive),17.9 µM (inactive),20.2 µM (inactive),17.5 µM (inactive),31.9 µM (inactive),19.5 µM (inactive),19.9 µM (inactive),15.8 µM (inactive),42.3 µM (inactive),20.1 µM (inactive),34.6 µM (inactive),27.9 µM (inactive),23.8 µM (inactive),28.3 µM (inactive),17.5 µM (inactive),–,–
CCOC(=O)c1c(SCC#N)n(-c2ccccc2)c(=S)n(-c2ccccc2)c1=O,–,> 100 µM (inactive),13.5 µM (inactive),61.7 µM (inactive),–,55.6 µM (inactive),47 µM (inactive),9.73 µM (inactive),39.2 µM (inactive),33.7 µM (inactive),40.7 µM (inactive),> 100 µM (inactive),38.5 µM (inactive),35.5 µM (inactive),55.8 µM (inactive),57.9 µM (inactive),> 100 µM (inactive),43.9 µM (inactive),38.7 µM (inactive),18.8 µM (inactive)
COc1ccc(C2(CN(C)C)COc3cc(OC)c(OC)cc3C2=O)cc1OC (stereo not drawn),74.8 µM (inactive),42.1 µM (inactive),19.6 µM (inactive),26.6 µM (inactive),> 100 µM (inactive),16.6 µM (inactive),61.5 µM (inactive),44.3 µM (inactive),> 100 µM (inactive),86.7 µM (inactive),34.6 µM (inactive),–,53.1 µM (inactive),23.5 µM (inactive),> 100 µM (inactive),> 100 µM (inactive),63.5 µM (inactive),16.3 µM (inactive),–,–
CC(=O)c1ccc(-c2oc(-c3ccccc3)cc2-c2ccc3c(c2)OCO3)s1,> 100 µM (inactive),2.42 µM (inactive),0.0313 µM (active),> 100 µM (inactive),> 100 µM (inactive),1.02 µM (active),–,> 100 µM (inactive),–,> 100 µM (inactive),–,> 100 µM (inactive),> 100 µM (inactive),> 100 µM (inactive),34.4 µM (inactive),–,> 100 µM (inactive),> 100 µM (inactive),3.07 µM (inactive),–
CCc1cccc(C)c1NC(=O)CCc1nnc(SC)o1,> 100 µM (inactive),> 100 µM (inactive),> 100 µM (inactive),> 100 µM (inactive),> 100 µM (inactive),> 100 µM (inactive),> 100 µM (inactive),> 100 µM (inactive),> 100 µM (inactive),> 100 µM (inactive),> 100 µM (inactive),> 100 µM (inactive),> 100 µM (inactive),> 100 µM (inactive),> 100 µM (inactive),> 100 µM (inactive),> 100 µM (inactive),> 100 µM (inactive),–,–
CO[C@H]1CC[C@]2(C)C3=CC[C@@]4(C)C(CC[C@@H]4C(C)CC[C@@H](C)C(C)C)C(=CCC2C1)O3 (stereo partly drawn),> 25 µM (inactive),10.2 µM (inactive),> 25 µM (inactive),> 25 µM (inactive),> 25 µM (inactive),> 25 µM (inactive),> 25 µM (inactive),> 25 µM (inactive),> 25 µM (inactive),> 25 µM (inactive),> 25 µM (inactive),> 25 µM (inactive),> 25 µM (inactive),> 25 µM (inactive),> 25 µM (inactive),> 25 µM (inactive),> 25 µM (inactive),> 25 µM (inactive),–,–
Cc1nccc2c1[nH]c1cc(O)ccc12 [HARMOL HYDROCHLORIDE],63.4 µM (inactive),41.1 µM (inactive),38.5 µM (inactive),> 100 µM (inactive),91 µM (inactive),29 µM (inactive),55.8 µM (inactive),23.7 µM (inactive),44.7 µM (inactive),42.5 µM (inactive),> 100 µM (inactive),68.2 µM (inactive),49.2 µM (inactive),44.5 µM (inactive),> 100 µM (inactive),> 100 µM (inactive),> 100 µM (inactive),41.5 µM (inactive),–,–
